Assay results as given in patent US20230405094A1, “TREATMENT OR PREVENTION OF A DISEASE OR DISORDER” (Janssen Sciences Ireland Unlimited Company, priority 2020, published 2023).
Blank lines part the entries; values can stand above or below the compound they belong to.

What was measured:
[1] = test system: non-castrate hormone-sensitive and bicalutamide-resistant human prostate cancer xenograft models; settings: cited from earlier work
[2] = Plasma kinetics after single subcutaneous dose of rilpivirine nanosuspension with or without rHuPH20 (Example 1); type: in vivo, minipigs; settings: minipig, single SC dose 900 mg/3 mL, N=3
Method: Six minipigs with body weights ranging from 20 to 25 kg at the start of the study were used. The minipigs were fasted overnight before dosing. Three minipigs were dosed subcutaneously in the loin with 0.19 mL of the hyaluronidase solution (10,000 U/mL) followed by 900 mg/3 mL of the drug nanosuspension at the same injection site (treatment group A). Three minipigs were dosed subcutaneously in the loin with the 900 mg/3 mL of the control drug suspension (treatment group B—control). The injection volume was 3 mL drug suspension in both treatment groups. Method—Sequential Administration • 1. Flip-off rHuPH20 solution vial flip cap and wipe with isopropyl alcohol wipe. Allow to dry. Attach an 18G transfer needle to a 1 mL syringe. • 2. Draw 0.35 mL into the syringe. • 3. Prime the syringe and set liquid level to 0.25 mL in the syringe. • 4. Remove transfer needle and attach syringe cap to 1 mL syringe. • 5. Mix rilpivirine by horizontally shaking the container 30 times over approximately 25 cm within approximately 10 s (a back and forth arm movement=2 times). Ensure well mixed/fully re-supended. • 6. Flip-off rilpivirine vial flip cap and wipe with isopropyl alcohol wipe. Allow to dry. • 7. Attach 18G transfer needle to 5 mL syringe. • 8. Invert vial and draw >3.2 mL into 5 mL syringe mL (or as much as can be removed from vial). Injecting 1-2 mL of air will facilitate draw. • 9. Detach needle and attach a syringe cap to 5 mL syringe • 10. Invert syringe. Wait 5 minutes for bubbles to settle. • 11. Attach a winged infusion set to the rHuPH20 1 mL syringe. Invert syringe and prime off air so that liquid forms at the tip of the needle. (0.19 mL of rHuPH20 should be in the line) • 12. […] Plasma samples were analysed individually by means of a validated LC-MS/MS method. Pharmacokinetic Data Analysis • The pharmacokinetic profile of the blood plasma samples was evaluated using non-compartmental pharmacokinetic analysis (using individual Cp vs time profiles). Mean plasma concentrations and PK parameters (Cmax, Tmax, t1/2 and AUC values) were measured and the results are provided in Table 1.

AR = AR (Homo sapiens, UniProt P10275); settings: cited from earlier work
Chain of AR (P10275 whole entry): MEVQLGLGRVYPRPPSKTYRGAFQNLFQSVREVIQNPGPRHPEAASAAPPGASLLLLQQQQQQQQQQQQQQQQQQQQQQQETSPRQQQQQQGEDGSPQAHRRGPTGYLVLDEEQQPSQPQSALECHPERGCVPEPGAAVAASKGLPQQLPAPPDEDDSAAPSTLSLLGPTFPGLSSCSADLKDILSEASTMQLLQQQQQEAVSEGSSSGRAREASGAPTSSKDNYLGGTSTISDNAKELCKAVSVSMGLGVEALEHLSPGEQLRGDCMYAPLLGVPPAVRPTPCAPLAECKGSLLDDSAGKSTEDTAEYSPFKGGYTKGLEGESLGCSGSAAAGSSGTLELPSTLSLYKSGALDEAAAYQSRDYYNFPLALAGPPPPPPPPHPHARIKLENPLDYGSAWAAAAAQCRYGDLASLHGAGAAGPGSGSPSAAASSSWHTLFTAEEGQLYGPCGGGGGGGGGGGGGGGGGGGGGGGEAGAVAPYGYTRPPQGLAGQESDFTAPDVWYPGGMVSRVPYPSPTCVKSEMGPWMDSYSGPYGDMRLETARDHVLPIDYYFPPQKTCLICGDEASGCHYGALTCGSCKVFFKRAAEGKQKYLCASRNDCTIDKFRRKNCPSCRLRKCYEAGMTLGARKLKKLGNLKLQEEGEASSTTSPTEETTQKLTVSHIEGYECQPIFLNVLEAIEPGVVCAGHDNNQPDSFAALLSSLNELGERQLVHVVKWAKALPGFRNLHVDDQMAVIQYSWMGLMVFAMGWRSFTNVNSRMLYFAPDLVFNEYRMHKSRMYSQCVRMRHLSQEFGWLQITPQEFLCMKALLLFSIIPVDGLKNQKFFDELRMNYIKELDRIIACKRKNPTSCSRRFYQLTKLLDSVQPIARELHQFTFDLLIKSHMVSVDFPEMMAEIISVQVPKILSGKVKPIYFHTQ

Structure (SMILES): CNC(=O)c1ccc(N2C(=S)N(c3cnc(C#N)c(C(F)(F)F)c3)C(=O)C23CCC3)cc1F [Apalutamide, 4-[7-(6-cyano-5-trifluoromethylpyridin-3-yl)-8-oxo-6-thioxo-5,7-diazaspiro[3.4]oct-5-yl]-2-fluoro-N-methylbenzamide]
tumor response [1]: partial or complete tumor regression

Tlast ([2]; median): 2160 h | λz [2]: 0.0009 ± 0.00009 h⁻¹ | AUC(0-inf) ([2]; plasma): 27000 ± 3200 ng·h/mL
Structure (SMILES): Cc1cc(/C=C/C#N)cc(C)c1Nc1ccnc(Nc2ccc(C#N)cc2)n1 [Rilpivirine, 4-[[4-[[4-[(1E)-2-cyanoethenyl]-2,6-dimethylphenyl]amino]-2-pyrimidinyl]amino]benzonitrile]

Structure (SMILES): CC(O)c1cc(C(=O)N[C@@H](C)Cn2ccc(-c3ccc(C#N)c(Cl)c3)n2)n[nH]1 (stereo partly drawn) [Darolutamide, N-{(2S)-1-[3-(3-chloro-4-cyanophenyl)-1H-pyrazol-1-yl]propan-2-yl}-5-(1-hydroxyethyl)-1H-pyrazole-3-carboxamide]
AR binding affinity (AR): high affinity
